# Data published in publication PMC11554998, “Machine learning-aided search for ligands of P2Y6 and other P2Y receptors” (Purinergic Signalling, 2024).
# How the values were obtained:
# P2Y14 receptor (hP2Y14R) = target: T1, P2Y14 receptor (hP2Y14R) (Homo sapiens, UniProt Q15391); assay: competitive binding vs fluorescent antagonist MRS4174, whole CHO-hP2Y14R cells, flow cytometry; single concentration […]; assay type: cell-based; details: read-out: P2Y14, % inhibition at 100 μM (n = 3)
# T1 construct: gene P2RY14
# T1 sequence (Q15391 1-338): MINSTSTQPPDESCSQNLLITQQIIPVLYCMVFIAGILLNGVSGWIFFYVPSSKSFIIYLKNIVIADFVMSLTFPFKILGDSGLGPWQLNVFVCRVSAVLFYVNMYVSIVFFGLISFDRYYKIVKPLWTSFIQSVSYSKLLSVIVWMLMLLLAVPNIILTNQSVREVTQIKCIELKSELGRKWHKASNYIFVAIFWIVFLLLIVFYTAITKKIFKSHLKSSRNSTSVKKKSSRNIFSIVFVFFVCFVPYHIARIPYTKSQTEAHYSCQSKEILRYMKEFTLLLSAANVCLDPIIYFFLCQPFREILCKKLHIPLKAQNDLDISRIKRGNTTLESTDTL
# P2Y6 receptor (hP2Y6R) = target: T2, P2Y6 receptor (hP2Y6R) (Homo sapiens, UniProt Q15077); assay: FLIPR calcium mobilization, inhibition of UDP ([…]) response in […]1-hP2Y6R cells; assay type: cell-based; details: read-out: P2Y6R, mean IC50 ± SEM (μM) or % inhibition at 400 μM^a
# T2 construct: gene P2RY6
# T2 sequence (Q15077 whole entry): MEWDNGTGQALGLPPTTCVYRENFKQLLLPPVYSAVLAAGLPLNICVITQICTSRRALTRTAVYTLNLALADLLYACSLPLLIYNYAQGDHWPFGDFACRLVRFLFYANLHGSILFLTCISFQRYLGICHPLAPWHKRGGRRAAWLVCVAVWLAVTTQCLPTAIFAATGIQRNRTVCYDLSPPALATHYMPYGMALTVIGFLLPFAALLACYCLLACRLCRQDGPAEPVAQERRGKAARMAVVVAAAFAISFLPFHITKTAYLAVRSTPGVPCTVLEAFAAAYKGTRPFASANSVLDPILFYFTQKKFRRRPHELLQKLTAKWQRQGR
SMILES,inhibition at 100 µM (P2Y14 receptor (hP2Y14R)),IC50 (P2Y6 receptor (hP2Y6R))
Cc1cc(C(=O)Nc2cc(Oc3ccc4nc(NC(=O)C5CC5)cn4n3)ccc2C)n(C)n1 [TAK-593],50 ± 4%,
CCNC(=O)c1cc2c(-c3cc(C(C)(C)O)ccc3Oc3c(C)cc(F)cc3C)cn(C)c(=O)c2[nH]1 [ABBV-744],,75.7 ± 11.5 µM
COc1cccc([C@@H](Oc2ccc3c(cnn3-c3ccc(F)cc3)c2)[C@H](C)NC(=O)C(F)(F)F)c1 [AZD5423],,574 ± 181 µM
